# According to US20230146675A1, “PYRIMIDO[5,4-d]PYRIMIDINE DERIVATIVES AS ENT INHIBITORS FOR THE TREATMENT OF CANCERS, AND COMBINATION THEREOF WITH ADENOSINE RECEPTOR ANTAGONISTS” (ITEOS BELGIUM SA, priority 2020, published 2023):
# Biological target: T1, human ENT1 (Homo sapiens, UniProt Q99808)
# T1 sequence (Q99808 1-456): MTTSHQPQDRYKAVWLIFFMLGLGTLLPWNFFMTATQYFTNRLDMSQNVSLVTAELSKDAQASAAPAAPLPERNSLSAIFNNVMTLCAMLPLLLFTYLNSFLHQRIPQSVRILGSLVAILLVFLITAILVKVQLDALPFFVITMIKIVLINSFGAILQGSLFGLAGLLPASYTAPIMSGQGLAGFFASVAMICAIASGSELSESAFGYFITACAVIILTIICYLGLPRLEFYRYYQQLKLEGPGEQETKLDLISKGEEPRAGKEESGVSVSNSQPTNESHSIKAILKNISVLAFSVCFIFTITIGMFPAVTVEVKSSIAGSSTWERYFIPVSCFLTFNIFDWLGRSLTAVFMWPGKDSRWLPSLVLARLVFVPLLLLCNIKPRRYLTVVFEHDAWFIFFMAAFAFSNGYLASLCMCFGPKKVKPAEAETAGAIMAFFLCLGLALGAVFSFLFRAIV
# Experiment: ENT1 binding assay (competition with Sahenta-DY647 on JAR cells)
# Design: JAR cells expressing ENT1 were bought from ATCC; host or cells: JAR cells
# Conditions: binned IC50
# In short: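 JAR cells were incubated with test compounds and the fluorescent ligand Sahenta-DY647 in competition. Plates were washed twice by centrifugation (4 min, 400 rcf, 4 °C). Binding potency was derived from the final fluorescence.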
row,SMILES,IC50 [nM]
1,"COCCN(CCOC)c1nc(N2CCC(OC)CC2)c2nc(N(CCOC)Cc3ccc(OC)c(OC)c3OC)nc(N3CCC(OC)CC3)c2n1 [Compound 183, N2,N2,N6-tris(2-methoxyethyl)-4,8-bis(4-methoxypiperidin-1-yl)-N6-(2,3,4-trimethoxybenzyl)pyrimido[5,4-d]pyrimidine-2,6-diamine]",< 100
2,"COCCN(Cc1ccc(OC)c(OC)c1OC)c1nc(N2CCN(C)C(=O)C2)c2nc(N(CCOC)CCOC)nc(N3CCC(OC)CC3)c2n1 [Compound 302, 4-(6-(bis(2-methoxyethyl)amino)-2-((2-methoxyethyl)(2,3,4-trimethoxybenzyl)amino)-8-(4-methoxypiperidin-1-yl)pyrimido[5,4-d]pyrimidin-4-yl)-1-methylpiperazin-2-one]",< 100
3,"COCCN(CCOC)c1nc(N2CCC(OC)CC2)c2nc(N(CCOC)CCOC)nc(NCC(C)(C)C)c2n1 [Compound 50, N2,N2,N6,N6-tetrakis(2-methoxyethyl)-8-(4-methoxypiperidin-1-yl)-N4-neopentylpyrimido[5,4-d]pyrimidine-2,4,6-triamine]",100 to 500
4,"COCCN(CCOC)c1nc(N2CCC(F)(F)CC2)c2nc(N(CCO)CCO)nc(N3CCC(F)(F)CC3)c2n1 [Compound 19, 2,2′-((6-(bis(2-methoxyethyl)amino)-4,8-bis(4,4-difluoropiperidin-1-yl)pyrimido[5,4-d]pyrimidin-2-yl)azanediyl)diethanol]",100 to 500
5,"CCCN(CCC)c1nc(N(CCOC)CCOC)nc2c(N3CCC(OC)CC3)nc(N(CCOC)CCOC)nc12 [Compound 165, N2,N2,N6,N6-tetrakis(2-methoxyethyl)-8-(4-methoxypiperidin-1-yl)-N4,N4-dipropylpyrimido[5,4-d]pyrimidine-2,4,6-triamine]",< 100
6,"COCCN(CCOC)c1nc(N2CCN(c3ncn(C)n3)CC2)c2nc(N(CCOC)CCOC)nc(N(C)Cc3cccc(Cl)c3)c2n1 [Compound 242, N4-(3-chlorobenzyl)-N2,N2,N6,N6-tetrakis(2-methoxyethyl)-N4-methyl-8-(4-(1-methyl-1H-1,2,4-triazol-3-yl)piperazin-1-yl)pyrimido[5,4-d]pyrimidine-2,4,6-triamine]",500 to 1000
7,"COCCN(CCOC)c1nc(N2CCc3cn[nH]c3C2)c2nc(N(CCOC)CCOC)nc(N3CCN(C)C(=O)C3)c2n1 [Compound 259, 4-(2,6-bis(bis(2-methoxyethyl)amino)-8-(1,4,5,7-tetrahydro-6H-pyrazolo[3,4-c]pyridin-6-yl)pyrimido[5,4-d]pyrimidin-4-yl)-1-methylpiperazin-2-one]",< 100
8,"COCCN(CCOC)c1nc(N2CCC(OC)CC2)c2nc(N(CCOC)CCOC)nc(N3CCC(COC)CC3)c2n1 [Compound 76, N2,N2,N6,N6-tetrakis(2-methoxyethyl)-4-(4-(methoxymethyl)piperidin-1-yl)-8-(4-methoxypiperidin-1-yl)pyrimido[5,4-d]pyrimidine-2,6-diamine]",500 to 1000
9,"COCCN(CCOC)c1nc(N2CCN(C(C)=O)CC2)c2nc(N(CCOC)CCOC)nc(N3CCC(OC)CC3)c2n1 [Compound 74, 1-(4-(2,6-bis(bis(2-methoxyethyl)amino)-8-(4-methoxypiperidin-1-yl)pyrimido[5,4-d]pyrimidin-4-yl)piperazin-1-yl)ethanone]",100 to 500
10,"COCCN(CCO)c1nc(N2CCC(OC)CC2)c2nc(N(CCOC)CCOC)nc(N3CCC(OC)CC3)c2n1 [Compound 34, 2-((6-(bis(2-methoxyethyl)amino)-4,8-bis(4-methoxypiperidin-1-yl)pyrimido[5,4-d]pyrimidin-2-yl)(2-methoxyethyl)amino)ethanol]",500 to 1000
11,"COCCN(CCOC)c1nc(N2CCC(OC)CC2)c2nc(N(CCOC)CCOC)nc(N(C)CC(C)C)c2n1 [Compound 168, N4-isobutyl-N2,N2,N6,N6-tetrakis(2-methoxyethyl)-8-(4-methoxypiperidin-1-yl)-N4-methylpyrimido[5,4-d]pyrimidine-2,4,6-triamine]",< 100
12,"COCCN(CCOC)c1nc(N2CC(C)(C)C2)c2nc(N(CCOC)CCOC)nc(N3CCC(OC)CC3)c2n1 [Compound 100, 4-(3,3-dimethylazetidin-1-yl)-N2,N2,N6,N6-tetrakis(2-methoxyethyl)-8-(4-methoxypiperidin-1-yl)pyrimido[5,4-d]pyrimidine-2,6-diamine]",100 to 500
13,"COCCN(CCOC)c1nc(N2CC(=O)N(C)C(C)C2)c2nc(N(CCO)CCO)nc(N3CCC(OC)CC3)c2n1 (centres unmarked) [Compound 310, 4-(6-(bis(2-hydroxyethyl)amino)-2-(bis(2-methoxyethyl)amino)-8-(4-methoxypiperidin-1-yl)pyrimido[5,4-d]pyrimidin-4-yl)-1,6-dimethylpiperazin-2-one]",500 to 1000
14,"COCCN(CCOC)c1nc(N2CCN(C)C(=O)C2)c2nc(N(CCOC)CCOC)nc(N(C)Cc3ccc(F)c(C#N)c3)c2n1 [Compound 238, 5-(((2,6-bis(bis(2-methoxyethyl)amino)-8-(4-methyl-3-oxopiperazin-1-yl)pyrimido[5,4-d]pyrimidin-4-yl)(methyl)amino)methyl)-2-fluorobenzonitrile]",< 100
15,"COCCN(CCOC)c1nc(N2CC(C)(O)C2)c2nc(N(CCOC)CCOC)nc(N3CCC(OC)CC3)c2n1 [Compound 101, 1-(2,6-bis(bis(2-methoxyethyl)amino)-8-(4-methoxypiperidin-1-yl)pyrimido[5,4-d]pyrimidin-4-yl)-3-methylazetidin-3-ol]",500 to 1000
16,"COCCN(CCOC)c1nc(N2CCC(OC)CC2)c2nc(N(CCOC)CCOC)nc(NCc3cnco3)c2n1 [Compound 60, N2,N2,N6,N6-tetrakis(2-methoxyethyl)-8-(4-methoxypiperidin-1-yl)-N4-(oxazol-5-ylmethyl)pyrimido[5,4-d]pyrimidine-2,4,6-triamine]",500 to 1000
17,"COCCN(CCOC)c1nc(N2CCN(C)C(=O)C2)c2nc(N(CCOC)CCOC)nc(N(C)Cc3cccc(C(N)=O)c3)c2n1 [Compound 240, 3-(((2,6-bis(bis(2-methoxyethyl)amino)-8-(4-methyl-3-oxopiperazin-1-yl)pyrimido[5,4-d]pyrimidin-4-yl)(methyl)amino)methyl)benzamide]",100 to 500
18,"COCCN(CCOC)c1nc(N2CCN(c3nccc(C)n3)CC2)c2nc(N(CCOC)CCOC)nc(N3CCC(OC)CC3)c2n1 [Compound 122, N2,N2,N6,N6-tetrakis(2-methoxyethyl)-4-(4-methoxypiperidin-1-yl)-8-(4-(4-methylpyrimidin-2-yl)piperazin-1-yl)pyrimido[5,4-d]pyrimidine-2,6-diamine]",100 to 500
19,"COCCN(CCOC)c1nc(N2CCN(c3ncn(C)n3)CC2)c2nc(N(CCOC)CCOC)nc(N(C)Cc3cccc(C(N)=O)c3)c2n1 [Compound 249, 3-(((2,6-bis(bis(2-methoxyethyl)amino)-8-(4-(1-methyl-1H-1,2,4-triazol-3-yl)piperazin-1-yl)pyrimido[5,4-d]pyrimidin-4-yl)(methyl)amino)methyl)benzamide]",100 to 500
20,"COCCN(CCOC)c1nc(N2CCC(OC)CC2)c2nc(N(CCOC)CCOC)nc(OCc3cccc(OC)c3)c2n1 [Compound 153, 4-((3-methoxybenzyl)oxy)-N2,N2,N6,N6-tetrakis(2-methoxyethyl)-8-(4-methoxypiperidin-1-yl)pyrimido[5,4-d]pyrimidine-2,6-diamine]",< 100
21,"COCCN(CCOC)c1nc(N2CCC(OC)CC2)c2nc(N(CCOC)CCOC)nc(NCc3cnccn3)c2n1 [Compound 84, N2,N2,N6,N6-tetrakis(2-methoxyethyl)-8-(4-methoxypiperidin-1-yl)-N4-(pyrazin-2-ylmethyl)pyrimido[5,4-d]pyrimidine-2,4,6-triamine]",500 to 1000
22,"CCOC(=O)N1CCN(c2nc(N3CCC(OC)CC3)c3nc(N(CCOC)CCOC)nc(N4CCC(OC)CC4)c3n2)CC1 [Compound 31, ethyl 4-(6-(bis(2-methoxyethyl)amino)-4,8-bis(4-methoxypiperidin-1-yl)pyrimido[5,4-d]pyrimidin-2-yl)piperazine-1-carboxylate]",500 to 1000
23,"COCCN(CCOC)c1nc(N2CCC(OC)CC2)c2nc(N(CCOC)CCOC)nc(N(C)CCc3ccccn3)c2n1 [Compound 83, N2,N2,N6,N6-tetrakis(2-methoxyethyl)-8-(4-methoxypiperidin-1-yl)-N4-methyl-N4-(2-(pyridin-2-yl)ethyl)pyrimido[5,4-d]pyrimidine-2,4,6-triamine]",500 to 1000
24,"COCCN(CCOC)c1nc(N2CCN(C)C(=O)C2)c2nc(N3CCNC(=O)C3)nc(N3CCC(OC)CC3)c2n1 [Compound 278, 4-(2-(bis(2-methoxyethyl)amino)-8-(4-methoxypiperidin-1-yl)-6-(3-oxopiperazin-1-yl)pyrimido[5,4-d]pyrimidin-4-yl)-1-methylpiperazin-2-one]",100 to 500
25,"COCCN(CCOC)c1nc(N2CCN(C)C(=O)C2)c2nc(N(CCOC)CCOC)nc(N3CCC(F)(F)CC3)c2n1 [Compound 206, 4-(2,6-bis(bis(2-methoxyethyl)amino)-8-(4,4-difluoropiperidin-1-yl)pyrimido[5,4-d]pyrimidin-4-yl)-1-methylpiperazin-2-one]",< 100
26,"COCCN(CCOC)c1nc(N2CCN(c3ncn(C)n3)CC2)c2nc(N(CCOC)CCOC)nc(NCc3cccc(Cl)c3)c2n1 [Compound 221, N4-(3-chlorobenzyl)-N2,N2,N6,N6-tetrakis(2-methoxyethyl)-8-(4-(1-methyl-1H-1,2,4-triazol-3-yl)piperazin-1-yl)pyrimido[5,4-d]pyrimidine-2,4,6-triamine]",< 100
